Results: PubChem BioAssay (NCI)
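In this assay, cells in 96-well plates receive the compound at five concentrations for 48 hours. Endpoints are linearly interpolated between the surrounding concentrations. TGI marks complete inhibition of growth.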

Key:
Assay in all cases: inhibition of tumour cell growth, NCI panel, 48 h
786-0 renal = system: 786-0 renal
A549 NSCLC = system: A549 NSCLC
ACHN renal = system: ACHN renal
BT-549 breast = system: BT-549 breast
CAKI-1 renal = system: CAKI-1 renal
CCRF-CEM leukemia = system: CCRF-CEM leukemia
COLO 205 colon = system: COLO 205 colon
DU-145 prostate = system: DU-145 prostate
EKVX NSCLC = system: EKVX NSCLC
HCC-2998 colon = system: HCC-2998 colon
HCT-116 colon = system: HCT-116 colon
HCT-15 colon = system: HCT-15 colon
HL-60(TB) leukemia = system: HL-60(TB) leukemia
HOP-62 NSCLC = system: HOP-62 NSCLC
HS 578T breast = system: HS 578T breast
HT29 colon = system: HT29 colon
IGROV1 ovarian = system: IGROV1 ovarian
K-562 leukemia = system: K-562 leukemia
KM12 colon = system: KM12 colon
LOX IMVI melanoma = system: LOX IMVI melanoma
M14 melanoma = system: M14 melanoma
MALME-3M melanoma = system: MALME-3M melanoma
MCF7 breast = system: MCF7 breast
MDA-MB-231 breast = system: MDA-MB-231 breast
MDA-MB-435 = system: MDA-MB-435
MDA-N = system: MDA-N
MOLT-4 leukemia = system: MOLT-4 leukemia
NCI-H226 lung = system: NCI-H226 lung
NCI-H23 lung = system: NCI-H23 lung
NCI-H460 lung = system: NCI-H460 lung
NCI-H522 lung = system: NCI-H522 lung
NCI/ADR-RES ovarian = system: NCI/ADR-RES ovarian
OVCAR-3 ovarian = system: OVCAR-3 ovarian
OVCAR-4 ovarian = system: OVCAR-4 ovarian
OVCAR-5 ovarian = system: OVCAR-5 ovarian
OVCAR-8 ovarian = system: OVCAR-8 ovarian
PC-3 prostate = system: PC-3 prostate
RPMI-8226 leukemia = system: RPMI-8226 leukemia
RXF 393 renal = system: RXF 393 renal
SF-268 CNS = system: SF-268 CNS
SF-295 CNS = system: SF-295 CNS
SF-539 CNS = system: SF-539 CNS
SK-MEL-2 melanoma = system: SK-MEL-2 melanoma
SK-MEL-28 melanoma = system: SK-MEL-28 melanoma
SK-MEL-5 melanoma = system: SK-MEL-5 melanoma
SK-OV-3 ovarian = system: SK-OV-3 ovarian
SN12C renal = system: SN12C renal
SNB-19 CNS = system: SNB-19 CNS
SNB-75 CNS = system: SNB-75 CNS
SR leukemia = system: SR leukemia
SW-620 colon = system: SW-620 colon
T-47D breast = system: T-47D breast
TK-10 renal = system: TK-10 renal
U251 CNS = system: U251 CNS
UACC-257 melanoma = system: UACC-257 melanoma
UACC-62 melanoma = system: UACC-62 melanoma
UO-31 renal = system: UO-31 renal
A498 renal = system: A498 renal
HOP-92 NSCLC = system: HOP-92 NSCLC

Compound: COc1cc2c(cc1Cl)n([O-])c(C#N)c(N1CCN(c3ccc([N+](=O)[O-])cc3)CC1)[n+]2=O
- TGI (786-0 renal): > 100 µM
- TGI (A549 NSCLC): > 100 µM
- TGI (ACHN renal): > 77.2 µM
- TGI (BT-549 breast): > 100 µM
- TGI (CAKI-1 renal): > 100 µM
- TGI (CCRF-CEM leukemia): > 100 µM
- TGI (COLO 205 colon): > 100 µM
- TGI (DU-145 prostate): > 100 µM
- TGI (EKVX NSCLC): > 100 µM
- TGI (HCC-2998 colon): 78.8 µM
- TGI (HCT-116 colon): > 100 µM
- TGI (HCT-15 colon): > 100 µM
- TGI (HL-60(TB) leukemia): > 100 µM
- TGI (HOP-62 NSCLC): > 62.8 µM
- TGI (HS 578T breast): > 57.5 µM
- TGI (HT29 colon): > 100 µM
- TGI (IGROV1 ovarian): 8.29 µM
- TGI (K-562 leukemia): > 100 µM
- TGI (KM12 colon): > 100 µM
- TGI (LOX IMVI melanoma): 73.6 µM
- TGI (M14 melanoma): > 100 µM
- TGI (MALME-3M melanoma): 99.6 µM
- TGI (MCF7 breast): > 100 µM
- TGI (MDA-MB-231 breast): > 100 µM
- TGI (MDA-MB-435): > 100 µM
- TGI (MDA-N): > 100 µM
- TGI (MOLT-4 leukemia): > 68 µM
- TGI (NCI-H226 lung): > 100 µM
- TGI (NCI-H23 lung): 91.3 µM
- TGI (NCI-H460 lung): > 100 µM
- TGI (NCI-H522 lung): 41.6 µM
- TGI (NCI/ADR-RES ovarian): > 100 µM
- TGI (OVCAR-3 ovarian): > 100 µM
- TGI (OVCAR-4 ovarian): > 100 µM
- TGI (OVCAR-5 ovarian): > 100 µM
- TGI (OVCAR-8 ovarian): 60.1 µM
- TGI (PC-3 prostate): > 100 µM
- TGI (RPMI-8226 leukemia): > 100 µM
- TGI (RXF 393 renal): > 100 µM
- TGI (SF-268 CNS): > 84 µM
- TGI (SF-295 CNS): > 100 µM
- TGI (SF-539 CNS): 44.3 µM
- TGI (SK-MEL-2 melanoma): > 100 µM
- TGI (SK-MEL-28 melanoma): > 100 µM
- TGI (SK-MEL-5 melanoma): > 59.6 µM
- TGI (SK-OV-3 ovarian): > 100 µM
- TGI (SN12C renal): > 100 µM
- TGI (SNB-19 CNS): > 100 µM
- TGI (SNB-75 CNS): > 70.6 µM
- TGI (SR leukemia): > 30.7 µM
- TGI (SW-620 colon): > 100 µM
- TGI (T-47D breast): > 81.5 µM
- TGI (TK-10 renal): > 100 µM
- TGI (U251 CNS): > 100 µM
- TGI (UACC-257 melanoma): > 100 µM
- TGI (UACC-62 melanoma): > 72.9 µM
- TGI (UO-31 renal): > 100 µM

Compound: COc1ccc(C2(C3c4cc(OC)c(OC)cc4CCN3C)SCCCS2)cc1O (stereo not drawn)
- TGI (786-0 renal): > 100 µM
- TGI (A498 renal): > 100 µM
- TGI (A549 NSCLC): > 100 µM
- TGI (BT-549 breast): > 100 µM
- TGI (CAKI-1 renal): > 100 µM
- TGI (CCRF-CEM leukemia): > 100 µM
- TGI (COLO 205 colon): > 100 µM
- TGI (DU-145 prostate): > 100 µM
- TGI (EKVX NSCLC): > 100 µM
- TGI (HCC-2998 colon): > 100 µM
- TGI (HCT-116 colon): > 100 µM
- TGI (HCT-15 colon): > 100 µM
- TGI (HL-60(TB) leukemia): > 100 µM
- TGI (HOP-62 NSCLC): > 100 µM
- TGI (HOP-92 NSCLC): > 100 µM
- TGI (HS 578T breast): > 100 µM
- TGI (HT29 colon): > 100 µM
- TGI (IGROV1 ovarian): > 100 µM
- TGI (K-562 leukemia): > 100 µM
- TGI (KM12 colon): > 100 µM
- TGI (LOX IMVI melanoma): > 100 µM
- TGI (M14 melanoma): > 100 µM
- TGI (MALME-3M melanoma): > 100 µM
- TGI (MCF7 breast): > 100 µM
- TGI (MDA-MB-231 breast): > 100 µM
- TGI (MDA-MB-435): > 100 µM
- TGI (MDA-N): > 100 µM
- TGI (MOLT-4 leukemia): > 100 µM
- TGI (NCI-H23 lung): > 100 µM
- TGI (NCI-H460 lung): > 100 µM
- TGI (NCI-H522 lung): > 100 µM
- TGI (NCI/ADR-RES ovarian): > 100 µM
- TGI (OVCAR-3 ovarian): > 100 µM
- TGI (OVCAR-4 ovarian): > 100 µM
- TGI (OVCAR-5 ovarian): > 100 µM
- TGI (OVCAR-8 ovarian): > 100 µM
- TGI (PC-3 prostate): > 100 µM
- TGI (RPMI-8226 leukemia): > 100 µM
- TGI (RXF 393 renal): > 100 µM
- TGI (SF-268 CNS): > 100 µM
- TGI (SF-295 CNS): > 100 µM
- TGI (SF-539 CNS): > 100 µM
- TGI (SK-MEL-2 melanoma): > 100 µM
- TGI (SK-MEL-28 melanoma): > 100 µM
- TGI (SK-MEL-5 melanoma): > 100 µM
- TGI (SK-OV-3 ovarian): > 100 µM
- TGI (SN12C renal): > 100 µM
- TGI (SNB-19 CNS): > 100 µM
- TGI (SR leukemia): > 100 µM
- TGI (SW-620 colon): > 100 µM
- TGI (T-47D breast): > 100 µM
- TGI (TK-10 renal): > 100 µM
- TGI (U251 CNS): > 100 µM
- TGI (UACC-257 melanoma): > 100 µM
- TGI (UACC-62 melanoma): > 100 µM
- TGI (UO-31 renal): > 100 µM
